We go through 65 molecules from ChEMBL document CHEMBL4190383, “Hit discovery of Mycobacterium tuberculosis inosine 5'-monophosphate dehydrogenase, GuaB2, inhibitors” (Bioorg Med Chem Lett, 2018).

In brackets after ≈: the same amount, converted by molar mass.

Assay [1] deals with Mycobacterium tuberculosis. The experiment in a line: Antimicrobial activity against Mycobacterium tuberculosis H37Rv by alamar blue assay. It counts as functional. On the technique in general: The colour change of resazurin is a common sign of viable cells or microbes.
Assay [2] concerns Mycobacterium tuberculosis. The experiment in a line: Antimicrobial activity against Mycobacterium tuberculosis SRMV2.6 H37Rv by alamar blue assay. The assay is classed as functional.
Assay [3] concerns Mycobacterium tuberculosis. Kind of assay: Inhibition of Mycobacterium tuberculosis GuaB2 at 50 uM.
Assay [4] has as its target Inosine-5'-monophosphate dehydrogenase 2 (Homo sapiens) (UniProt P12268). The experiment in a line: Inhibition of human IMPDH2 at 10 uM.

Inosine-5'-monophosphate dehydrogenase 2 (Homo sapiens), sequence (P12268 2-514 limits assumed): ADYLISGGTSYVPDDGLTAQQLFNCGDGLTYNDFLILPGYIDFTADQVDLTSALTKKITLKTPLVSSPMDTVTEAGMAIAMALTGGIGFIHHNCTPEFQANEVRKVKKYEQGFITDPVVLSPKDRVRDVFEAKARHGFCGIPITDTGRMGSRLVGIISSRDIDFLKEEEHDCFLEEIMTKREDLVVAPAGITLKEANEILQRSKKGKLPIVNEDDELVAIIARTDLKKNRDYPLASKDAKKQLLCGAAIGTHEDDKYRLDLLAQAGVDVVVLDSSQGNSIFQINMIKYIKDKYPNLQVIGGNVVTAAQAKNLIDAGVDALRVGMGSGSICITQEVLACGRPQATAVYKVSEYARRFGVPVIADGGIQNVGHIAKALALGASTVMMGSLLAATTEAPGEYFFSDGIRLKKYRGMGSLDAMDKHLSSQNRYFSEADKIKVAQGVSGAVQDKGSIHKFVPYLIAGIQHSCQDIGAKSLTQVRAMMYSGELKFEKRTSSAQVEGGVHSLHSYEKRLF

In assay [1], `O=C(CNc1ccc(F)cc1)Nc1ccc2c(c1)COC2=O` came in with an MIC90 greater than 100 µM.
For `COc1cccc(Cn2nncc2COc2ccc3ccccc3c2)c1`, the MIC90 in assay [2] is greater than 100 µM; in assay [1], 50 µM (≈ 17.3 µg/mL). For the same molecule, the inhibition in assay [3] was 52.4%; in assay [4], 24.9%.
As to `CC(C(=O)Nc1ccc2c(c1)COC2=O)c1ccc(-c2ccccc2)c(F)c1` (stereo not drawn), the MIC90 in assay [1] is greater than 100 µM.
As for `Fc1ccc(Cn2nncc2COc2ccc3ccccc3c2)cc1`, in assay [1], the MIC90 is greater than 100 µM.
As for `O=C(O)COCC(=O)Nc1ccccc1C(=O)O`, the MIC90 in assay [1] is greater than 100 µM.
With `O=C(COc1ccc(C(=O)/C=C/c2cccs2)cc1)Nc1ccc2c(c1)COC2=O`, in assay [1], the MIC90 is greater than 100 µM.
The same measure, in the same setting: the figure for `COc1ccc(NC(=O)Nc2ccc(-c3cnco3)cc2)cc1` is greater than 100 µM; for `O=C(O)CCC(=O)NCc1ccc2c(c1)OCO2` it is greater than 100 µM.
Still for that read-out and setting: the figure for `Cc1ccc2nc(NC(=O)CCC(=O)O)sc2c1` is greater than 100 µM; for `Clc1cccc(Cn2nncc2COc2ccc3ccccc3c2)c1` it is greater than 100 µM; for `CC1CC(NS(=O)(=O)c2ccc(NC(=O)CCC(=O)O)cc2)=NO1` (stereo not drawn) it is greater than 100 µM.
In assay [1], `Cc1nc2sccc2c(=O)n1NC(=O)Nc1cccc([N+](=O)[O-])c1` had an MIC90 greater than 100 µM.
In turn, `COc1c(C)c2c(c(O)c1C/C=C(\C)CCC(=O)N[C@@H](C)c1ccccc1)C(=O)OC2` returned an MIC90 in assay [1] greater than 100 µM.
For `Fc1ccccc1NC(=S)Nc1ccc(-c2cccc(Cl)c2)cn1`, the MIC90 in assay [1] is greater than 100 µM.
In the case of `Cc1ccc(CNC(=O)/C=C\C(=O)O)cc1`, in assay [1], the MIC90 was greater than 100 µM.
In assay [1], `O=C(COc1ccc(C(=O)/C=C/c2ccc([N+](=O)[O-])cc2)cc1)Nc1ccc2c(c1)COC2=O` showed an MIC90 greater than 100 µM.
`COc1cc(NC(=O)Nn2c(C)nc3sccc3c2=O)cc(OC)c1` gave an MIC90 in assay [1] greater than 100 µM.
For `COC(=O)c1ccc(OCC(=O)Nc2ccc3c(c2)COC3=O)cc1`, the MIC90 in assay [1] is greater than 100 µM.
Consider `COc1ccc(NC(=O)Nn2c(C)nc3sccc3c2=O)cc1`, for which the MIC90 in assay [1] is greater than 100 µM.
Still for that read-out and setting: the figure for `Cc1nc2sccc2c(=O)n1NC(=S)Nc1ccccc1F` is greater than 100 µM; for `Cc1nc2sccc2c(=O)n1NC(=O)Nc1ccc(F)cc1` it is greater than 100 µM.
Molecule `CCOC(=O)C1CCN(CC(=O)Nc2ccc3c(c2)COC3=O)CC1` came in with an MIC90 in assay [1] greater than 100 µM.
For the molecule `Cc1nnc(-c2ccc(OCc3cnnn3Cc3ccc(Cl)cc3)cc2)o1`, the MIC90 in assay [1] was greater than 100 µM.
For the molecule `Clc1ccc(Cn2nncc2COc2ccc3ccccc3c2)cc1`, the MIC90 in assay [1] was greater than 100 µM.
In assay [1], `COc1ccccc1NC(=O)Nn1c(C)nc2sccc2c1=O` yielded an MIC90 greater than 100 µM.
On to `Cc1nc2sccc2c(=O)n1NC(=O)/C=C/c1ccccc1`, for which the MIC90 in assay [1] is greater than 100 µM.
`CC(C)Cc1ccc(C(C)C(=O)Nc2ccc3c(c2)COC3=O)cc1` (stereo not drawn) yielded an MIC90 in assay [1] greater than 100 µM.
Same read-out and setting: the figure for `O=C1OCc2cc(NS(=O)(=O)c3ccc([N+](=O)[O-])cc3)ccc21` is greater than 100 µM; for `COc1cccc(NC(=O)Nn2c(C)nc3ccsc3c2=O)c1` it is greater than 100 µM.
In assay [1], `O=C(O)/C=C\C(=O)NCc1ccccc1` came in with an MIC90 greater than 100 µM.
Take `Cc1nnc(-c2ccc(OCc3cnnn3Cc3ccc(C#N)cc3)cc2)o1`: in assay [1], the MIC90 was greater than 100 µM.
On the same count and under the same terms, the figure for `Cc1ccc(NC(=O)Nn2c(C)nc3sccc3c2=O)cc1Cl` is greater than 100 µM; for `COc1ccc(NC(=O)CC/C(C)=C/Cc2c(O)c3c(c(C)c2OC)COC3=O)cc1` it is greater than 100 µM.
As to `Fc1ccccc1NC(=S)Nc1ccc(-c2ccccc2Cl)cn1`, in assay [1], the MIC90 was greater than 100 µM.
Same read-out and setting: the figure for `Cc1nnc(-c2ccc(OCc3cnnn3Cc3ccc(F)cc3)cc2)o1` is greater than 100 µM.
On the same count and under the same terms, the figure for `CC(C(=O)Nc1ccc2c(c1)COC2=O)c1cccc(C(=O)c2ccccc2)c1` (stereo not drawn) is 100 µM (≈ 38.5 µg/mL); for `O=C(O)/C=C\C(=O)NC12CC3CC(CC(C3)C1)C2` it is greater than 100 µM; for `O=C(O)CNC(=O)[C@@H]1C[C@H]1c1ccccc1` it is greater than 100 µM.
Molecule `COc1ccc2[nH]c(S(=O)(=O)Cc3c(C)c(OC)c(C)c[n+]3[O-])nc2c1` returned an MIC90 in assay [1] greater than 100 µM.
In assay [1], `COc1ccc(-c2ccc(NC(=O)CCC(=O)O)cc2)cn1` registered an MIC90 greater than 100 µM.
`O=C(O)CCCC(=O)Nc1ccc(N2CC3(COC3)C2)c(F)c1` came in with an MIC90 in assay [1] greater than 100 µM.
For the molecule `CC(=O)c1ccc(OCC(=O)Nn2c(C)nc3sccc3c2=O)cc1`, the MIC90 in assay [1] is greater than 100 µM.
The same measure, in the same setting: the figure for `O=C(COc1cc(Cl)ccc1Oc1ccc(Cl)cc1Cl)Nc1ccc2c(c1)COC2=O` is greater than 100 µM; for `O=C(COc1cccc2ccccc12)Nc1ccc2c(c1)COC2=O` it is greater than 100 µM; for `COc1cc(-c2oc3ccccc3c(=O)c2OCC(=O)Nc2ccc3c(c2)COC3=O)cc(OC)c1OC` it is greater than 100 µM.
In assay [1], `Cc1cc(OCC(=O)Nc2ccc3c(c2)COC3=O)ccc1[N+](=O)[O-]` came in with an MIC90 greater than 100 µM.
Molecule `N#Cc1ccc(Cn2nncc2COc2ccc3ccccc3c2)cc1` displayed an MIC90 in assay [1] greater than 100 µM.
Same read-out and setting: the figure for `O=C(COc1ccc2ccccc2c1)Nc1ccc2c(c1)COC2=O` is greater than 100 µM; for `O=C(O)CCCC(=O)N1CCn2c(nnc2C(F)(F)F)C1` it is greater than 100 µM; for `Cc1ccccc1NC(=S)Nc1ccc(-c2cc(Cl)cc(Cl)c2)cn1` it is greater than 100 µM.
On the same count and under the same terms, the figure for `O=C(O)CCC(=O)NCC1(N2CCOCC2)CCCCCC1` is greater than 100 µM.
Molecule `Cc1nnc(-c2ccc(OCc3cnnn3Cc3ccc(Cl)cc3Cl)cc2)o1` showed an MIC90 in assay [1] greater than 100 µM.
In assay [1], `COc1ccc(NC(=O)Nn2c(C)nc3ccsc3c2=O)cc1` returned an MIC90 greater than 100 µM.
In turn, `Clc1ccc(Cn2nncc2COc2ccc3ccccc3c2)c(Cl)c1` had an MIC90 in assay [1] greater than 100 µM.
As for `Cc1nc2sccc2c(=O)n1NC(=O)Nc1ccc2c(c1)OCO2`, in assay [1], the MIC90 is greater than 100 µM.
Take `O=C1OCc2cc(NC(=O)c3cccnc3Cl)ccc21`: in assay [1], the MIC90 was greater than 100 µM.
Turning to `COc1cc(/C=C/C(=O)c2cccc(OCC(=O)Nc3ccc4c(c3)COC4=O)c2)cc(OC)c1OC`, the MIC90 in assay [1] was greater than 100 µM.
`O=C(O)CCCC(=O)Nc1cc(-c2ccco2)[nH]n1`: the MIC90 in assay [1] was greater than 100 µM.
`CC(=O)C1CCN(CC(=O)Nn2c(C)nc3sccc3c2=O)CC1` yielded an MIC90 in assay [1] greater than 100 µM.
Regarding `Cc1nc2sccc2c(=O)n1NC(=O)Nc1ccc([N+](=O)[O-])cc1`, the MIC90 in assay [1] was greater than 100 µM.
Consider `COc1ccc2[nH]c(S(=O)(=O)Cc3ncc(C)c(OC)c3C)nc2c1` [OMEPRAZOLE SULFONE], for which the MIC90 in assay [1] was greater than 100 µM.
`O=C(Cn1c(-c2ccncc2)nc2cc(Br)cnc21)Nc1cccc2ccccc12` registered an MIC90 in assay [1] greater than 100 µM.
Take `Fc1ccccc1Cn1nncc1COc1ccc2ccccc2c1`: the MIC90 in assay [1] was greater than 100 µM.
Still for that read-out and setting: the figure for `COc1cc(C(=O)/C=C/c2cc(OC)c(OC)c(OC)c2)ccc1OCC(=O)Nc1ccc2c(c1)COC2=O` is greater than 100 µM; for `COc1cccc(NC(=O)Nn2c(C)nc3sccc3c2=O)c1` it is greater than 100 µM.

What is called MIC90 is an inhibitory concentration at the 90% level, which refers to growth in some studies and to a panel of isolates in others. Low readings indicate higher susceptibility, high ones lower susceptibility. What is called inhibition is how much of the control response was suppressed. Low readings indicate little suppression, high ones strong suppression.
